From ChEMBL document CHEMBL1132325, “4-Heterocyclohexanone-based inhibitors of the serine protease plasmin” (J Med Chem, 1999)

Experiments:
[1] = target: T1, Plasminogen (Homo sapiens, UniProt P00747); assay: (§1) Compound was evaluated for its binding affinity against plasmin
[2] = target: T1, Plasminogen; assay: as §1; remark: listed apart in the source
[3] = target: Serine protease 1 (Homo sapiens, UniProt P07477); assay: Compound was evaluated for its binding affinity against trypsin
[4] = target: Kallikrein-1 (Homo sapiens, UniProt P06870); assay: Compound was evaluated for its binding affinity against kallikrein
[5] = target: Prothrombin (Homo sapiens, UniProt P00734); assay: Compound was evaluated for its binding affinity against thrombin

T1 sequence (P00747 97-580 limits assumed): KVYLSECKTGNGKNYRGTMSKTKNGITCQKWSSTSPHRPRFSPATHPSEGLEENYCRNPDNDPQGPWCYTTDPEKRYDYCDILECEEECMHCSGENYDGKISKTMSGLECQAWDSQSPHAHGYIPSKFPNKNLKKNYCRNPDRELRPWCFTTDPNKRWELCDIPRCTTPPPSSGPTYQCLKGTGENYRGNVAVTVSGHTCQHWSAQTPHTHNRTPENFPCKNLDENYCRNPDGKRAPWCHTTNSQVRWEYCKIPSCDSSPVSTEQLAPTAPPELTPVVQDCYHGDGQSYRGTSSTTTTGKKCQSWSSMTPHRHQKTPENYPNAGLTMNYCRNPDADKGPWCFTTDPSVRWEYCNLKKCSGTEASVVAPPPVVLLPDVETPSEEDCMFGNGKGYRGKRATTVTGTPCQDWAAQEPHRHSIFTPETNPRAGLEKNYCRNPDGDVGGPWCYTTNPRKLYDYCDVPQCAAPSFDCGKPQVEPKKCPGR
T1 sequence (P00747 581-810 limits assumed): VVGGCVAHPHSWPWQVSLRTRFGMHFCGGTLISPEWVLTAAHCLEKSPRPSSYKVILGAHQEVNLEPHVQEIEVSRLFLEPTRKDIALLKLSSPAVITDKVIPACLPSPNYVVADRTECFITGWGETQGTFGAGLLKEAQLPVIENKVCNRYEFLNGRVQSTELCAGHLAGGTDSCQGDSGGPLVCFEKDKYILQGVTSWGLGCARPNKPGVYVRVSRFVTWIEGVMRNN
Kallikrein-1, sequence (P06870 whole entry): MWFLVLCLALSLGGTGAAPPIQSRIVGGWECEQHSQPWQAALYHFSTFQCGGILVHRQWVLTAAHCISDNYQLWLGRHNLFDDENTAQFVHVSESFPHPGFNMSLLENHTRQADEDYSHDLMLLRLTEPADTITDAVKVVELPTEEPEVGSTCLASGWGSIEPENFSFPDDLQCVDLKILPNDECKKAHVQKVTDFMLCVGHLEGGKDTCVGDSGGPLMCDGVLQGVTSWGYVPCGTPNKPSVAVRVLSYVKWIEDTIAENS
Serine protease 1, sequence (P07477 whole entry): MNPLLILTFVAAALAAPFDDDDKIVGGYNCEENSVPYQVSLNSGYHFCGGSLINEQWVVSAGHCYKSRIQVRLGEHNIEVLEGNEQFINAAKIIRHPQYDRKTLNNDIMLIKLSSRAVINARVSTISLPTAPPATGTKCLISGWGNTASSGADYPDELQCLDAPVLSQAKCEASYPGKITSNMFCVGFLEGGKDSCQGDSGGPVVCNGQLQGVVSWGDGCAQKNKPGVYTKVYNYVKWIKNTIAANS

Row | SMILES | Ki [1] [µM] | Ki [2] [µM] | Ki [3] [µM] | Ki [4] [µM] | Ki [5] [µM]
1 | CCC(C)[C@@H](N)C(=O)N[C@@H](Cc1ccccc1)C(=O)N(CCCCCCN)C1CCCCC1 (some centres not stated) | 520 |  |  |  | 
2 | CC[C@@H](C)[C@@H](N)C(=O)N[C@@H](Cc1ccccc1)C(=O)N(CCCCCCN)C1CSCCC1=O (some centres not stated) | 130 | 50 | 1700 |  | 
3 | CC[C@H](C)[C@@H](N)C(=O)N[C@@H](Cc1ccccc1)C(=O)N(CCCCCCN)C1CSCCC1=O (some centres not stated) |  |  |  | 630 | 720
4 | NCCCCCCN(CCCCCCN)C1CSCCC1=O (configuration not stated) |  | 400 | 1400 | > 10000 | > 10000
5 | CC[C@@H](C)[C@@H](N)C(=O)N[C@@H](Cc1ccccc1)C(=O)NC1CSCCC1=O (stereo in doubt; form 1) | 16000 |  |  |  | 
6 | CC[C@@H](C)[C@@H](N)C(=O)N[C@@H](Cc1ccccc1)C(=O)NC1CSCCC1=O (stereo in doubt; form 2) | 9000 |  |  |  | 
